According to article PMC7737618, “Structure and elevator mechanism of the mammalian sodium/proton exchanger NHE9” (The EMBO Journal, 2020):

How the values were obtained:
NHE9* [1] = target: T1, NHE9* (Equus caballus, UniProt F7B113, K85Q/K105Q/K107Q); assay: GFP-based thermal shift (FSEC-TS); format: binding; details: 1% DDM, 1% octyl glucoside, 10 min heating; lipid 1 mg/ml in the screen; TM2-TM3 loop mutant
T1 construct: gene SLC9A9; residues 8-575 (8-574 elsewhere) of 644, C-terminal tail truncated; GFP-TwinStrep-His8 fusion kept for thermal shift; S. cerevisiae FGY217; purified homodimer
T1 sequence (F7B113 8-575 K85Q/K105Q/K107Q): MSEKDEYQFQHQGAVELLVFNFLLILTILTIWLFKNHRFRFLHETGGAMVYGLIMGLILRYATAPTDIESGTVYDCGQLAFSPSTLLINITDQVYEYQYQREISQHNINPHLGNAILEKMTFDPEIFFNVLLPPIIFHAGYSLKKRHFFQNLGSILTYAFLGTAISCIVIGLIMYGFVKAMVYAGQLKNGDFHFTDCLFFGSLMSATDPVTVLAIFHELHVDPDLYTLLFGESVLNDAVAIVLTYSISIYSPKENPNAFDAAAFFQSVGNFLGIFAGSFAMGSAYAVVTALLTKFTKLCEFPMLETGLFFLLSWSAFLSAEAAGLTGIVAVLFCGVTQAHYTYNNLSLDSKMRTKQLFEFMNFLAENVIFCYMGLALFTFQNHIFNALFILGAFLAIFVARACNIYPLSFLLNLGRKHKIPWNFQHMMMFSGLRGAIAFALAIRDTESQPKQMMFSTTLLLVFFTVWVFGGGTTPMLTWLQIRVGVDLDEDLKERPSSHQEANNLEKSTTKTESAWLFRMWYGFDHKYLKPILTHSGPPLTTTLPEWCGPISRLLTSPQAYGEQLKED

NHE9 ΔCTD = target: T2, NHE9 ΔCTD (Equus caballus, UniProt F7B113); assay: GFP-based thermal shift (FSEC-TS); format: binding; details: 1% DDM, 1% octyl glucoside, 10 min heating; lipid 1 mg/ml in the screen
T2 construct: gene SLC9A9; residues 8-481 of 644, whole C-terminal regulatory domain removed; GFP-TwinStrep-His8 fusion for thermal shift; S. cerevisiae FGY217; purified homodimer
T2 sequence (F7B113 8-481): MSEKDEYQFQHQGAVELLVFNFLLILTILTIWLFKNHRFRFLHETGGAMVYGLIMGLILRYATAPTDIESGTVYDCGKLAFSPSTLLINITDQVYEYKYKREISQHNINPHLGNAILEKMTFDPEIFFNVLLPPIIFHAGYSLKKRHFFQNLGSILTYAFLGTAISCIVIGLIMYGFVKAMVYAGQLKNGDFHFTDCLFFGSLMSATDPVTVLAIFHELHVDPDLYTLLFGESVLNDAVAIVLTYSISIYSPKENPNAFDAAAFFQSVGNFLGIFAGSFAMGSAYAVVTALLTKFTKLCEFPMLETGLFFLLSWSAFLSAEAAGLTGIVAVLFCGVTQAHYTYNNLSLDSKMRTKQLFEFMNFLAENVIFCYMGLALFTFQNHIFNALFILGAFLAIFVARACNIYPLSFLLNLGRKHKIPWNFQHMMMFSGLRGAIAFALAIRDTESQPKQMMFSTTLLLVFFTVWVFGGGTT

NHE9* [2] = target: T3, NHE9* (Equus caballus, UniProt F7B113); assay: GFP-based thermal shift (FSEC-TS); format: binding; details: 1% DDM, 1% octyl glucoside, 10 min heating; lipid 1 mg/ml in the screen
T3 construct: gene SLC9A9; residues 8-575 (8-574 elsewhere) of 644, C-terminal tail truncated; GFP-TwinStrep-His8 fusion kept for thermal shift; S. cerevisiae FGY217; purified homodimer
T3 sequence (F7B113 8-575): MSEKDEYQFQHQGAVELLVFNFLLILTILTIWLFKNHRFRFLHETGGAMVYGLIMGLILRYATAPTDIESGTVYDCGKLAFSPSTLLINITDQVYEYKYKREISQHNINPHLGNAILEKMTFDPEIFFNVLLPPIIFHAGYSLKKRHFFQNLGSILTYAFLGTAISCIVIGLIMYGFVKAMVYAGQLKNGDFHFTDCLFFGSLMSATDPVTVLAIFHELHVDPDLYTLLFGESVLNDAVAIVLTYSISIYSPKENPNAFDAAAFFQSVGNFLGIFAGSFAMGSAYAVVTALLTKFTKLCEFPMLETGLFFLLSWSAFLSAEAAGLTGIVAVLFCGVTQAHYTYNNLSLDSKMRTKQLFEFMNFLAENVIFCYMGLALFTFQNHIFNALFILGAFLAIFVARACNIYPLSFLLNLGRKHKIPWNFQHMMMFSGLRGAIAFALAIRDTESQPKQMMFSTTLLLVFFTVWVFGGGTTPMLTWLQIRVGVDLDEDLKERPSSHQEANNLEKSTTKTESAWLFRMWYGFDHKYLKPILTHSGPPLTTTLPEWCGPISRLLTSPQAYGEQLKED
Excerpt: GFP-based thermal shift (FSEC-TS) on NHE9* | In the presence of either PIP2 or PIP3, the average melting temperature (ΔT m)

[3] = target: horse NHE9* (residues 8-575 out of 644), TEV-cleaved (Equus caballus (horse)); assay: native MS; 100 mM ammonium acetate pH 7.0, 0.02% (w/v) DDM; NHE9* purified with or without added brain lipids
[4] = target: the molecule itself; assay: cryo-EM structure; purified protein in LMNG/CHS, 20 mM Tris-HCl pH 7.5, 150 mM NaCl; brain lipids added during purification; no symmetry imposed (C1)

In the case of `CCCCCCCC(=O)OC[C@H](COP(=O)(O)O[C@@H]1[C@H](O)[C@H](O)[C@@H](OP(=O)(O)O)[C@H](OP(=O)(O)O)[C@H]1O)OC(=O)CCCCCCC` [PIP2, phosphatidylinositol bis‐4,5‐phosphate,1,2‐dioctanoyl], the ΔTm (NHE9* [1]) is reported as “a triple lysine‐to‐glutamine loop mutant markedly reduced PIP2‐mediated stabilization”, the ΔTm (NHE9 ΔCTD) is reported as “the ΔCTD construct was also analysed, yet additional stabilization upon PIP2 addition was still observed” and the ΔTm (NHE9* [2]) is reported as 9 °C.

`CCCCCCCCCCCCCCCC(=O)OC[C@H](COP(=O)(O)O[C@H]1[C@H](O)[C@@H](OP(=O)(O)O)[C@H](OP(=O)(O)O)[C@@H](OP(=O)(O)O)[C@H]1O)OC(=O)CCCCCCCCCCCCCCC` [PIP3, phosphatidylinositol tris‐3,4,5‐phosphate,1,2‐dipalmitoyl] was tested, and the ΔTm (NHE9* [2]) was 9 °C.

In the case of “horse NHE9* (residues 8-575 out of 644), TEV-cleaved (domain or fragment)”, the stoichiometry N [3] is reported as 2.

B1: horse NHE9 ΔCTD (residues 8-481 out of 644) (domain or fragment, Equus caballus (horse), UniProt F7B113 8-481, looked up)
chain: MSEKDEYQFQHQGAVELLVFNFLLILTILTIWLFKNHRFRFLHETGGAMVYGLIMGLILRYATAPTDIESGTVYDCGKLAFSPSTLLINITDQVYEYKYKREISQHNINPHLGNAILEKMTFDPEIFFNVLLPPIIFHAGYSLKKRHFFQNLGSILTYAFLGTAISCIVIGLIMYGFVKAMVYAGQLKNGDFHFTDCLFFGSLMSATDPVTVLAIFHELHVDPDLYTLLFGESVLNDAVAIVLTYSISIYSPKENPNAFDAAAFFQSVGNFLGIFAGSFAMGSAYAVVTALLTKFTKLCEFPMLETGLFFLLSWSAFLSAEAAGLTGIVAVLFCGVTQAHYTYNNLSLDSKMRTKQLFEFMNFLAENVIFCYMGLALFTFQNHIFNALFILGAFLAIFVARACNIYPLSFLLNLGRKHKIPWNFQHMMMFSGLRGAIAFALAIRDTESQPKQMMFSTTLLLVFFTVWVFGGGTT
notes: horse (Equus caballus) NHE9 (SLC9A9), residues 8-481 out of 644, lacking the entire C-terminal regulatory domain; C-terminal residues left after TEV cleavage are probably as in NHE9* (surmise); also called ΔCTD construct; source: S. cerevisiae FGY217, purified (Strep-Tactin XT, TEV digestion, SEC); not shown: GFP, C-terminal, cleaved; TwinStrep, C-terminal, cleaved; His8, C-terminal, cleaved
B1: binds [4].
